Laboratory results taken from ChEMBL document CHEMBL1201862, “PubChem BioAssay data set” (2004).
Calls of active or inactive are those of the source.

What was measured:
[1] = antiviral protection against BTV-induced cell death – arbovirus, BSR cells, confirmation (AID 1250); assay type: functional;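 also: protection from viral cytopathic effect measured as cell viability by ATP luminescence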
Nonstructural protein 1 = Nonstructural protein 1 (Influenza A virus, UniProt Q194T2); assay type: functional, Influenza A virus (A/California/07/2009(H1N1))
H9c2 = experiment: cells; assay type: functional, cell-based; conditions: Rattus norvegicus, H9c2, Myocardium
[2] = target: Sphingosine 1-phosphate receptor 2 (Homo sapiens, UniProt O95136); experiment: Dose Response Cell-Based Assay for Agonists of the Sphingosine 1-Phosphate Receptor 2 (S1P2): Purchased Analogues. [Related pubchem assays: 1192, 373, 439 ]; assay type: functional
[3] = target: T1, Sphingosine 1-phosphate receptor 1 (Homo sapiens, UniProt P21453); experiment: Dose Response Cell-Based Assay for Agonists of the Sphingosine 1-Phosphate Receptor 1 (S1P1): Purchased Analogues. [Related pubchem assays: 1192, 373, 439 ]; assay type: functional
[4] = target: T2, Sphingosine 1-phosphate receptor 3 (Homo sapiens, UniProt Q99500); experiment: Dose Response Cell-Based Assay for Agonists of the Sphingosine 1-Phosphate Receptor 3 (S1P3): Purchased Analogues. [Related pubchem assays: 373, 439 ]; assay type: functional
[5] = viability of uninfected HEp-2 cells – cell-based, HTS, cytotoxicity control for RSV inhibitor project, dose response (AID 2410); assay type: functional; conditions: human respiratory syncytial virus
[6] = target: 5-hydroxytryptamine receptor 1E (Homo sapiens, UniProt P28566); experiment: Counterscreen assay for S1P3 antagonists: Dose response cell-based high throughput screening assay to identify antagonists of the 5-Hydroxytryptamine Receptor Subtype 1E (5HT1E). [Related pubchem assays: 1429, 485 ]; assay type: functional
[7] = target: T2, Sphingosine 1-phosphate receptor 3; experiment: Dose response cell-based high throughput screening assay for antagonists of the Sphingosine 1-Phosphate Receptor 3 (S1P3). [Related pubchem assays: 1429, 485 ]; assay type: functional
BJ [8] = experiment: BJ-TERT fibroblast viability loss – cell-based, RAS-independent, luminescence, dose response (AID 1933); assay type: functional; conditions: Homo sapiens
[9] = target: T3, Heat shock factor protein 1 (Mus musculus, UniProt P38532); experiment: decrease of HSF1-responsive luciferase luminescence – cell-based, NIH3T3, dose retest, confirmation (AID 2382); assay type: functional;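 also: NIH3T3 fibroblasts with HSF1-driven luciferase reporter stressed by proteasome inhibitor MG132; luminescence from HSF1-driven luciferase expression after 8 hours of MG132 stress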
T3 sequence (P38532 whole entry): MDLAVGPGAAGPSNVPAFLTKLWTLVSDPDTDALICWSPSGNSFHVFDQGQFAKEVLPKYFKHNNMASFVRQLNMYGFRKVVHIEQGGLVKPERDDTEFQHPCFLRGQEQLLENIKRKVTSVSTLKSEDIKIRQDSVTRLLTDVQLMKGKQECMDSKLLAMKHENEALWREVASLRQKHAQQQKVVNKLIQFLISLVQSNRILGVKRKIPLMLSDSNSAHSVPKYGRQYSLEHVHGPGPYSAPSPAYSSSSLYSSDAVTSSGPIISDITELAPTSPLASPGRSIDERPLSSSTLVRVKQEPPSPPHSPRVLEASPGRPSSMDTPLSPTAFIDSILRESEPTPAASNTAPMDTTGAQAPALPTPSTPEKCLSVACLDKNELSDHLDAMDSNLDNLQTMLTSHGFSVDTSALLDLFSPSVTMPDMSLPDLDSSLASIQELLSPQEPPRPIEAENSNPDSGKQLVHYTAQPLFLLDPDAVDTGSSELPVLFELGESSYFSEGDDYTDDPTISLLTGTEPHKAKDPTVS

BJ [10] = experiment: cells; assay type: functional, cell-based; conditions: Homo sapiens
[11] = target: T4, Sphingosine 1-phosphate receptor 4 (Homo sapiens, UniProt O95977); experiment: Fluorescence dose response cell-based high throughput screening assay for antagonists of the Sphingosine 1-Phosphate Receptor 4 (S1P4). [Related pubchem assays: 1524 (Confirmation in triplicates.), 1510 (Primary screen.)]; assay type: functional
T4 sequence (O95977 whole entry): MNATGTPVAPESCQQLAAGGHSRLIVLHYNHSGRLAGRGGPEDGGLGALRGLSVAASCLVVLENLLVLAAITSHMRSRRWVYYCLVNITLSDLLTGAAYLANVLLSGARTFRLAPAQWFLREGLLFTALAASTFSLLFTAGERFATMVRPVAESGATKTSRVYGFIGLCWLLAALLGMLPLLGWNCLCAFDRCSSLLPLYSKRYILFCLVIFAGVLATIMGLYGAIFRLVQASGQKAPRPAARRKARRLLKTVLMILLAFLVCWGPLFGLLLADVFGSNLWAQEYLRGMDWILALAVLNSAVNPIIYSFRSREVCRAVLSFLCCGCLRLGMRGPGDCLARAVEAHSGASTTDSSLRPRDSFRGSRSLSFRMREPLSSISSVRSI

BJ [12] = experiment: BJ-TERT-LT-ST fibroblast viability loss – cell-based, RAS-independent, luminescence, dose response (AID 1935); assay type: functional; conditions: Homo sapiens;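 also: BJ fibroblasts immortalized with TERT plus LT and ST oncogenes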
[13] = DRD fibroblast viability loss – cell-based, non-viral oncogenic, luminescence, dose response (AID 1934); assay type: functional; conditions: Homo sapiens
[14] = target: T1, Sphingosine 1-phosphate receptor 1; assay type: functional
[15] = target: T5, G-protein coupled receptor 55 (Homo sapiens, UniProt Q9Y2T6); experiment: selective activators of receptor GPR55 – imaging, U2OS cells, beta-arrestin-GFP redistribution, primary screen (AID 1961); assay type: functional
[16] = THP-1 cell cytotoxicity, dose response, cytotoxicity control for non-replicating M. tuberculosis project (AID 489025); assay type: functional
[17] = HEK-293T viability loss after treatment – luminescence, T-cell screen hits, cytotoxicity control for TCR NF-kB inhibitor project, dose response (AID 489026); assay type: functional, cell-based;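 also: cells exposed to compound about 14 hours before the viability readout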
BJ [18] = experiment: growth inhibition of engineered Ras-driven BJ cells – cell-based, alamar blue fluorescence, cherrypicked samples, dose response (AID 2631); assay type: functional; conditions: Homo sapiens;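 also: confirmatory dose-response assay in RAS-dependent BJ fibroblasts engineered with TERT, LT and ST, with cytotoxicity read by fluorescence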
[19] = target: Epstein-Barr nuclear antigen 1 (Epstein-Barr virus (strain B95-8) (HHV-4) (Human herpesvirus 4), UniProt P03211); experiment: inhibition of EBV nuclear antigen 1 DNA binding – biochemical, fluorescence polarization, 1536-well, dose response (AID 2381); parameters: species or system human gammaherpesvirus 4;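 also: fluorescence polarization of a Cy5 DNA probe bound by EBNA-1 protein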
[20] = target: Lytic switch protein BZLF1 (Epstein-Barr virus (strain B95-8) (HHV-4) (Human herpesvirus 4), UniProt P03206); experiment: inhibition of BZLF1 ZTA DNA binding – biochemical, fluorescence polarization, Epstein-Barr virus, 1536-well, counter-screen for EBNA-1 inhibitor project, dose response (AID 2377); parameters: species or system human gammaherpesvirus 4;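 also: fluorescence polarization of Cy5-labelled ZRE DNA probe bound by purified Zta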
[21] = system: Streptococcus sp. 'group A'; experiment: Streptococcus pyogenes SK(-)GAS viability under kanamycin – luminescence, BacTiterGlo, confirmation, counter-screen for streptokinase expression inhibitor project, dose response (AID 1900); assay type: functional, organism-based
Streptokinase A = target: T6, Streptokinase A (Streptococcus pyogenes serotype M1, UniProt P10520); experiment: viability-normalized secreted streptokinase activity reduction – plasminogen activation absorbance, OD405, dose response (AID 1914); assay type: functional, Streptococcus pyogenes M1 GAS;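 also: secreted streptokinase activity via plasminogen activation per viability signal from cell pellet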
T6 sequence (P10520 whole entry): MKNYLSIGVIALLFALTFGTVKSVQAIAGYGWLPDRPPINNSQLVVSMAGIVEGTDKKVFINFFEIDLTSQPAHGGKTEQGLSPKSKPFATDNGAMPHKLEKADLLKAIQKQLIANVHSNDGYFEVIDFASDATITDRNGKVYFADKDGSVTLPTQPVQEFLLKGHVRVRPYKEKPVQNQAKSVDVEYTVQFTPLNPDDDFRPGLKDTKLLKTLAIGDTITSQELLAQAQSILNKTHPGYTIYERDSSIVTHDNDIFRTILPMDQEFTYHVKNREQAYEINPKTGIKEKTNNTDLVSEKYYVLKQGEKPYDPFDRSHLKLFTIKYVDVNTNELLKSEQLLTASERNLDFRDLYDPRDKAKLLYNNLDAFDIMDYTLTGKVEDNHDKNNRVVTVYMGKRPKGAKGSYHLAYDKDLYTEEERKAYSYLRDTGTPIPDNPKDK

[22] = target: T5, G-protein coupled receptor 55; experiment: inhibition of LPI-stimulated GPR55 beta-arrestin translocation – imaging, U2OS, beta-arrestin-GFP, LPI agonist, primary screen (AID 2013); assay type: functional;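 also: antagonist potency measured as reduced agonist-driven arrestin aggregation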
[23] = target: T7, Kappa-type opioid receptor (Homo sapiens, UniProt P41145); assay type: functional
Beta-galactosidase = Beta-galactosidase (Escherichia coli, UniProt Q8VNN2); assay type: functional
[24] = target: T7, Kappa-type opioid receptor; assay type: functional; remark: listed apart in the source
[25] = mitochondrial function rescue without frataxin homolog – Friedreich's ataxia, plus single-dose screen, dose response (AID 1465); assay type: functional;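 also: yeast depleted of Yfh1p frataxin homolog grown on glycerol needing respiration; WST-1 tetrazolium dye reduction as measure of cellular dehydrogenase metabolic activity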
Streptococcus = experiment: GAS UMAA2166 growth inhibition – luminescence, BacTiterGlo, counter-screen for streptokinase expression inhibitor project, dose response (AID 1915); assay type: functional, organism-based;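 also: potency for reduction of bacterial viability or growth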
[26] = target: Matrix metalloproteinase-14 (Homo sapiens, UniProt P50281); experiment: Dose Response confirmation of uHTS hits for a small molecule inhibitors of MT1-MMP activation in a fluorescence assay set 2.; assay type: functional
NS3 = NS3 (Hepatitis C virus, UniProt A3EZJ3); experiment: PubChem AID 2173; parameters: species or system Hepacivirus hominis
[27] = target: Induced myeloid leukemia cell differentiation protein Mcl-1 (Homo sapiens, UniProt Q07820); assay type: functional
Bcl-2-related protein A1 [28] = target: T8, Bcl-2-related protein A1 (Mus musculus, UniProt Q07440); experiment: displacement of Bid BH3 peptide from Bfl-1 – biochemical, fluorescence polarization, FITC-Bid, mouse, primary screen (AID 432)
T8 sequence (Q07440 whole entry): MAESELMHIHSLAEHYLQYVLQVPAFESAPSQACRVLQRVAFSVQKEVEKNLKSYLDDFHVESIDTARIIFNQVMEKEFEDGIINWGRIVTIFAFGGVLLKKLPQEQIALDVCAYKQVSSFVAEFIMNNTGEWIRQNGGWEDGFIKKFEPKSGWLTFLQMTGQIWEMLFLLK

Bcl-2-related protein A1 [29] = target: T8, Bcl-2-related protein A1; experiment: small-molecule antagonists of Bfl-1/BH3 interaction – biochemical, TR-FRET, mouse Bfl-1, confirmation (AID 621);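 also: TR-FRET binding of GST-Bfl-1 to FITC-labelled Bid peptide via terbium antibody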
fMet-Leu-Phe receptor = fMet-Leu-Phe receptor (Homo sapiens, UniProt P21462); experiment: formyl peptide receptor binders – dose response (AID 519); assay type: functional
[30] = target: Mannose-6-phosphate isomerase (Homo sapiens, UniProt P34949); experiment: MPI enzyme activity inhibition – biochemical, fluorescence intensity, coupled assay, primary screen (AID 1209)
Vero = experiment: viability of Vero cells under compound – cytotoxicity control for flavivirus capping enzyme inhibitors (AID 588742); assay type: functional; conditions: Chlorocebus sabaeus
[31] = A High Throughput Confirmatory Assay used to Identify Novel Compounds that Inhibit Mycobacterium Tuberculosis in the absence of Glycerol.; assay type: functional

T2 sequence (Q99500 whole entry): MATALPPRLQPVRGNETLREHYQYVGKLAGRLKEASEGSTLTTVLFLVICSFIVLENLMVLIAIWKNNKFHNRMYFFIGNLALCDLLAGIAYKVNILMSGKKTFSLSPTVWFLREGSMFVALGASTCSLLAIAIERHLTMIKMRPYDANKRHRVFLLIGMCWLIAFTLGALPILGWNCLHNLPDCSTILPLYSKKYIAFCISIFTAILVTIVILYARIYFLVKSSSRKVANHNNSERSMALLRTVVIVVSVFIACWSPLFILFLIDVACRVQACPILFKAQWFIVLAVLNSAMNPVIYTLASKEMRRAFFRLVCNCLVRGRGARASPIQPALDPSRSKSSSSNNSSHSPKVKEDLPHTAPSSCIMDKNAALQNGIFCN
T7 sequence (P41145 whole entry): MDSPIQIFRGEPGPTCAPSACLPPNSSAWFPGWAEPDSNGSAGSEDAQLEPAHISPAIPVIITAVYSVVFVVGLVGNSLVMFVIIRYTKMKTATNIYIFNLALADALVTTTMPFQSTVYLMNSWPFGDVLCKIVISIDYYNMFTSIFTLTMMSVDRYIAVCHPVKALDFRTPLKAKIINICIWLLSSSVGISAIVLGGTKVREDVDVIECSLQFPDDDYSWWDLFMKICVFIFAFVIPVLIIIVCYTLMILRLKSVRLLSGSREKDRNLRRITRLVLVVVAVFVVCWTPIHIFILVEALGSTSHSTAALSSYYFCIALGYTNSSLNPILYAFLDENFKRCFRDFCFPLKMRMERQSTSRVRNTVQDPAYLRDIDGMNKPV
T1 sequence (P21453 whole entry): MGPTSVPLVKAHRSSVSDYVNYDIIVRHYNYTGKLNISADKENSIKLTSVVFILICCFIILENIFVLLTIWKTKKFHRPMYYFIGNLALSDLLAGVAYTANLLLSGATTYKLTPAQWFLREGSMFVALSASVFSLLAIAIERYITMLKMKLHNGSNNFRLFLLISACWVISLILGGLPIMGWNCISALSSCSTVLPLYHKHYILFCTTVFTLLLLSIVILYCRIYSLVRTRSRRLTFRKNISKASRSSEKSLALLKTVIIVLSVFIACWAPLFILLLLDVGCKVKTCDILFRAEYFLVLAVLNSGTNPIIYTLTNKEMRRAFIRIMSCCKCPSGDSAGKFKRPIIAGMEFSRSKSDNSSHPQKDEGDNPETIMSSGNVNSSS
T5 sequence (Q9Y2T6 whole entry): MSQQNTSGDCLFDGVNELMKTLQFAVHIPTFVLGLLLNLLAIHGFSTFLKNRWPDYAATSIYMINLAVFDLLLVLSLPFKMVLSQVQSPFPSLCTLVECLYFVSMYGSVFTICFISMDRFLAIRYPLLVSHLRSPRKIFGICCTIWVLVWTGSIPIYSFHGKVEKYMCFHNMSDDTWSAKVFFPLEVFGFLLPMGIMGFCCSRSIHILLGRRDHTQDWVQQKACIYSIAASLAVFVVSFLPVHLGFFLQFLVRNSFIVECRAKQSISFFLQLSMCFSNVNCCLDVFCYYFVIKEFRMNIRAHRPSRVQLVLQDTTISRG
Beta-galactosidase, sequence (Q8VNN2 whole entry): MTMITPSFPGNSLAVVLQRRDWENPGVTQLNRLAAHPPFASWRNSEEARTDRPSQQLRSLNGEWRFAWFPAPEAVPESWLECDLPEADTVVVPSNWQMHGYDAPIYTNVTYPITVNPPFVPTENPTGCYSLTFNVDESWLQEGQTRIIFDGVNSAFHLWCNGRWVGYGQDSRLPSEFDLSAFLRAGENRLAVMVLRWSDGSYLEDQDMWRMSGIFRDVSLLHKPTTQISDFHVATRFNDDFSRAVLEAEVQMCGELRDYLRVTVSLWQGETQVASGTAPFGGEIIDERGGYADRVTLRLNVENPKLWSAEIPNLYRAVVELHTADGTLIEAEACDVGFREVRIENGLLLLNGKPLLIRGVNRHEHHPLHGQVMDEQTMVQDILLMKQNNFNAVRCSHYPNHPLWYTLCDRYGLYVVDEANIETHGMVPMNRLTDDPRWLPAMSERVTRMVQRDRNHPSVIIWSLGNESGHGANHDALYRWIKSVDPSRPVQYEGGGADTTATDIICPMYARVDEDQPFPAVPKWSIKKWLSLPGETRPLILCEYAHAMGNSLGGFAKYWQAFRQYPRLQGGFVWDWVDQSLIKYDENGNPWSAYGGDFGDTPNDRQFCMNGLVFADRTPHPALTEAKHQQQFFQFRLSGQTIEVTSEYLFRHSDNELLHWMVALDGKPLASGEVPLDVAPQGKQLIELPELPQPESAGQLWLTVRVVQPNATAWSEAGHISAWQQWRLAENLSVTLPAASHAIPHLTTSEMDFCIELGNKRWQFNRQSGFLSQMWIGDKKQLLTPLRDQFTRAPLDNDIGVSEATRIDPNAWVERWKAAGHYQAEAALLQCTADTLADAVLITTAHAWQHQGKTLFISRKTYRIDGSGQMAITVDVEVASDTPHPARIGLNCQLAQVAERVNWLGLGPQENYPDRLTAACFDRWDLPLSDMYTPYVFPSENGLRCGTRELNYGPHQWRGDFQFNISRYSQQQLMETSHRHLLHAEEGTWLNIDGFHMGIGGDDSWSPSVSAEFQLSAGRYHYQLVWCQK
Epstein-Barr nuclear antigen 1, sequence (P03211 whole entry): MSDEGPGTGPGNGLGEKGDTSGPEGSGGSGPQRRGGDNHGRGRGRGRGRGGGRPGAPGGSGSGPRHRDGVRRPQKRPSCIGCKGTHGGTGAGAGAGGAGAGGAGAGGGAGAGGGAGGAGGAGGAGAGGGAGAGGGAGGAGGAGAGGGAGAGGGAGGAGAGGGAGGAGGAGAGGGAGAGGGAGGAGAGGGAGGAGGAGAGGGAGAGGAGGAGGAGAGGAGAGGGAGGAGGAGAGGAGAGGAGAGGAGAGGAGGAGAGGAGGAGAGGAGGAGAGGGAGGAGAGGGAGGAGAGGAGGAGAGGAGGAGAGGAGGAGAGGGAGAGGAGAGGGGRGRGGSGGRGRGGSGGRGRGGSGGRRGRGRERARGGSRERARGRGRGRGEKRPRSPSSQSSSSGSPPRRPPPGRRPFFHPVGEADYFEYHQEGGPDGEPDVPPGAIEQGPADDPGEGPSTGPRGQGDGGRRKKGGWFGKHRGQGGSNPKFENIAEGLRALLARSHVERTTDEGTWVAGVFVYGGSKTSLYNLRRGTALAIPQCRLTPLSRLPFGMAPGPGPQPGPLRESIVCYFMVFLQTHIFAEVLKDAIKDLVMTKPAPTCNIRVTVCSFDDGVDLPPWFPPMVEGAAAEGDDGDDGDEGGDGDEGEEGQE
Lytic switch protein BZLF1, sequence (P03206 whole entry): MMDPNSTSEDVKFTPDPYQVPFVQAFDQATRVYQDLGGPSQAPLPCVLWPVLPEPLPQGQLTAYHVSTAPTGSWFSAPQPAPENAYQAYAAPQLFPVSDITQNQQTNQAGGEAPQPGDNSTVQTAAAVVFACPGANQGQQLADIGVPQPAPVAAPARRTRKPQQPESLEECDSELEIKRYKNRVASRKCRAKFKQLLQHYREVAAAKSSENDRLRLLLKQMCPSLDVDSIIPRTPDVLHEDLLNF
NS3, sequence (A3EZJ3 whole entry): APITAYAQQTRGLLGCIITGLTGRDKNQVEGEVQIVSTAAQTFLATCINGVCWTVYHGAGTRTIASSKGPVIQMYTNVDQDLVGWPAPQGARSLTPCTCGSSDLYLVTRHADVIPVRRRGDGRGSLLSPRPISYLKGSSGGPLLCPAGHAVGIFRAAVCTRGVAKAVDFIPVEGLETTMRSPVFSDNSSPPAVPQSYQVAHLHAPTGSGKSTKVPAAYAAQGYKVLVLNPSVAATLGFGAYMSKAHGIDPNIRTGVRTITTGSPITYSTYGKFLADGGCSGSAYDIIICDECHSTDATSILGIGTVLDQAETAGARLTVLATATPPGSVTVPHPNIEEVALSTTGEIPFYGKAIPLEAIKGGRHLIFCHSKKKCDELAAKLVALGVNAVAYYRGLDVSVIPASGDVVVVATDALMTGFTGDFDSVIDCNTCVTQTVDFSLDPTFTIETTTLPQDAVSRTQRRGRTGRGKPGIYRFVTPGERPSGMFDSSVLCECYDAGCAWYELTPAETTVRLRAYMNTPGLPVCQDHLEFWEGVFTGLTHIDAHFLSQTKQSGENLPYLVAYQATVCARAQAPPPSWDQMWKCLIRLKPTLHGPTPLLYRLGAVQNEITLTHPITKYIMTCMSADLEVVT
fMet-Leu-Phe receptor, sequence (P21462 whole entry): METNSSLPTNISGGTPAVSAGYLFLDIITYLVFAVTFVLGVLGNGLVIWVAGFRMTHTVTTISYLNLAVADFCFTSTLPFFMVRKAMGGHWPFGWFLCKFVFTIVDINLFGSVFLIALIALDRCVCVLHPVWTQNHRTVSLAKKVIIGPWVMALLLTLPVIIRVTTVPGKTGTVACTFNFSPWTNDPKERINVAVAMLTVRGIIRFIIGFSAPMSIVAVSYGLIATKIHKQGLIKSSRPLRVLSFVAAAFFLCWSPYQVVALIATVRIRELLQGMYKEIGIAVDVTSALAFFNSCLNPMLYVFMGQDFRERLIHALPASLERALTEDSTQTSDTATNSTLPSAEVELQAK
Nonstructural protein 1, sequence (Q194T2 whole entry): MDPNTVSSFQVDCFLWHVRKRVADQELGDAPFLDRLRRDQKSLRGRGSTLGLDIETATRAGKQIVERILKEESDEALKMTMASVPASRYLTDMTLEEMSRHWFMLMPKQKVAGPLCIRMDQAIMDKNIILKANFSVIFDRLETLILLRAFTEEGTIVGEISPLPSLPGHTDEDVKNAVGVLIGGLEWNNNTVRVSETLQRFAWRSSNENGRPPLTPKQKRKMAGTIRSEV
5-hydroxytryptamine receptor 1E, sequence (P28566 whole entry): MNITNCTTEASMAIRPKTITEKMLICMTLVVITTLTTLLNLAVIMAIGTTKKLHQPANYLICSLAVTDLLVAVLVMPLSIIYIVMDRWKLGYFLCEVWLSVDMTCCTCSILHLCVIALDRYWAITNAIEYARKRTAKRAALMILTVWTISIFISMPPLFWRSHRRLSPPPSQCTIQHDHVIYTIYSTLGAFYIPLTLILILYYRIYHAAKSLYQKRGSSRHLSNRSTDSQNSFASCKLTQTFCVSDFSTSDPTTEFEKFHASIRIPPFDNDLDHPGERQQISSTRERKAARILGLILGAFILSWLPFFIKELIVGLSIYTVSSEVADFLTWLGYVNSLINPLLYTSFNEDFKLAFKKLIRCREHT

## CC(=O)Nc1ccc(C(=O)Nc2nc(-c3ccccn3)cs2)cc1
[1]
  IC50: 38 µM (active)
Nonstructural protein 1
  IC50: 7.8 µM (active)
H9c2
  IC50: > 79 µM (inactive)

## Cc1cc(C(=O)N2C(C)CCCC2C)no1 (centres undefined)
[2]
  EC50: > 10 µM (not active)
[3]
  EC50: > 50 µM (not active)
[4]
  EC50: > 50 µM (not active)

## CCCC[C@@H]1C[C@H]1[C@@H](NC(=O)c1cccs1)c1ccc(Cl)cc1
[5]
  CC50: 20.8 µM (active)
[6]
  IC50: 2.47 µM (active)
[7]
  IC50: 1.21 µM (active)

## CC1(C)C[C@H]2C=C(C=O)[C@]3(C=O)C[C@]3(C)[C@H]2C1 [ISOVELLERAL]
BJ [8]
  EC50: 5.11 µM (inconclusive)
[9]
  EC50: 530 nM (active)
BJ [10]
  EC50: 5.77 µM (inconclusive)
[11]
  IC50: 253 nM (active)
BJ [12]
  EC50: 3.8 µM (inconclusive)
[13]
  EC50: 5.29 µM (inconclusive)
[14]
  IC50: 4.96 µM (active)
[15]
  EC50: < 500 nM (active)
[16]
  CC50: 29.5 µM (active)
[17]
  IC50: > 80 µM (inactive)
BJ [18]
  EC50: 575 nM (inconclusive)

## COc1cccc(OC)c1C(=O)Nc1nc2cc3c(cc2s1)OCO3
[19]
  IC50: 15.5 µM (not active)
[20]
  IC50: > 111 µM (not active)

## COc1ccccc1N=Nc1nc(-c2ccccc2)c(-c2ccccc2)[nH]1
[21]
  EC50: 1.97 µM (active)
Streptokinase A
  EC50: 89.6 µM (active)
[22]
  IC50: 587 nM (active)
[23]
  IC50: 24 µM (inactive)
Beta-galactosidase
  EC50: 23.9 µM (active)
[24]
  IC50: > 32 µM
[25]
  EC50: > 100 µM (active)
Streptococcus
  EC50: > 150 µM (not active)
[26]
  IC50: 36.8 µM (inactive)

## CNc1ccc(Br)cc(C(=O)/C=C/c2cccc(Cl)c2Cl)c1=O
NS3
  IC50: 5.02 µM (active)
[27]
  IC50: 2.63 µM (active)

## O=C(C1=C(O)C(=O)N(c2ncccn2)C1c1cccc(Cl)c1)c1ccco1 (centres undefined)
Bcl-2-related protein A1 [28]
  IC50: > 100 µM (not active)
Bcl-2-related protein A1 [29]
  IC50: > 100 µM (not active)
fMet-Leu-Phe receptor
  Ki: > 66.7 µM (inactive)

## CC(=O)Oc1ccc2c(=O)c(Oc3ccccc3)c(C)oc2c1OC(C)=O
[30]
  IC50: 44.8 µM (active)
Vero
  CC50: 38.1 µM (active)

## CC(C)OC(=O)c1ccc(NC(=S)NC(=O)c2cncc(Br)c2)cc1
[31]
  IC50: > 100 µM (active)
